Source: PMC8733726, “Dioctanoyl Ultrashort Tetrabasic β-Peptides Sensitize Multidrug-Resistant Gram-Negative Bacteria to Novobiocin and Rifampicin” (Frontiers in Microbiology, 2021)
≈ marks a conversion by molar mass, not a printed value. Read-outs that look alike come from different tables or passages of the source.

What was measured:
[1] = system: MDR P. aeruginosa clinical isolates; test: Resistance phenotype (MICs of antibiotics) of MDR clinical isolates; type: cell-based, Pseudomonas aeruginosa; settings: Pseudomonas aeruginosa, read-out: MIC
[2] = system: MDR K. pneumoniae clinical isolates; test: as above; type: cell-based, Klebsiella pneumoniae; settings: Klebsiella pneumoniae, read-out: MIC
[3] = system: MDR A. baumannii clinical isolates; test: as above; type: cell-based, Acinetobacter baumannii; settings: Acinetobacter baumannii, read-out: MIC
[4] = system: MDR E. coli clinical isolates; test: as above; type: cell-based, Escherichia coli; settings: Escherichia coli, read-out: MIC
[5] = system: MDR E. cloacae clinical isolates; test: as above; type: cell-based, Enterobacter cloacae; settings: Enterobacter cloacae, read-out: MIC
[6] = system: wild-type E. coli ATCC 25922; test: microbe, parasite or virus in culture; type: cell-based, Escherichia coli; settings: ATCC 25922; for MICcombo: antibiotic with dUSTBβP 3 at 8 μg/mL; for MIC: Escherichia coli, ATCC25922, 18 h, antibiotic alone (Supplementary Table 7), read-out: MICantibiotic
Protocol: (§1) The adjuvant activities of dUSTBβPs were evaluated using checkerboard assay as previously described ([Berry et al., 2019]). Overnight-grown bacterial culture diluted in saline to 0.5 McFarland turbidity was successively diluted 1:50 in MHB to achieve a final concentration of 5 × 10^5 CFU/mL for inoculation. The antibiotic and adjuvant were serially diluted 2-fold along the x-axis and y-axis, respectively, resulting in varying concentrations of both agents in each well. Subsequently, the 96-well plate was incubated with equal volumes of bacterial inoculum at 37°C for 18 h. Confirmation of turbidity was done using an EMax Plus microplate reader (Molecular Devices, United States) at a wavelength of 590 nm. Wells comprising MHB alone or in the presence of bacterial cells were used as negative or positive controls, respectively. Fractional inhibitory concentration index (FICI) is determined by adding the FICs of both antibiotic and adjuvant. The FIC of the antibiotic is calculated by dividing the MIC of the antibiotic in the presence of the adjuvant by the MIC of the antibiotic alone. Similarly, the FIC of the adjuvant is calculated by dividing the MIC of the adjuvant in the presence of the antibiotic by the MIC of the adjuvant alone. FICI ≤ 0.5, 0.5 < x ≤ 4, and >4 were deemed synergistic, additive, and antagonistic, respectively ([Meletiadis et al., 2010]).

[7] = system: wild-type P. aeruginosa PAO1; test: microbe, parasite or virus in culture; type: cell-based, Pseudomonas aeruginosa; settings: PAO1; for MIC: Pseudomonas aeruginosa, 18 h, antibiotic alone (Supplementary Table 7), read-out: MICantibiotic
Excerpt: as §1, with “Overnight-grown” for “The adjuvant activities of dUSTBβPs were evaluated using checkerboard assay as previously described ([Berry et al., 2019]). Overnight-grown”, “Subsequently, the 96-well plate was incubated with equal volumes of bacterial inoculum at 37°C for 18 h.” left out, “alone.” for “alone. FICI ≤ 0.5, 0.5 < x ≤ 4, and >4 were deemed synergistic, additive, and antagonistic, respectively ([Meletiadis et al., 2010]).”

[8] = system: wild-type A. baumannii ATCC 17978; test: Checkerboard assay; type: cell-based, Acinetobacter baumannii; settings: ATCC 17978; for MICcombo: antibiotic with dUSTBβP 3 at 8 μg/mL; for MIC: Acinetobacter baumannii, ATCC17978, 18 h, antibiotic alone (Supplementary Table 7), read-out: MICantibiotic
Excerpt: as §1, with “Overnight-grown” for “The adjuvant activities of dUSTBβPs were evaluated using checkerboard assay as previously described ([Berry et al., 2019]). Overnight-grown”, “Subsequently, the 96-well plate was incubated with equal volumes of bacterial inoculum at 37°C for 18 h.” left out, “alone.” for “alone. FICI ≤ 0.5, 0.5 < x ≤ 4, and >4 were deemed synergistic, additive, and antagonistic, respectively ([Meletiadis et al., 2010]).”

Structure (SMILES) | MIC ([1]; 259-96196) | MIC ([1]; 262-101856) | MIC ([1]; 264-104354) | MIC [1]; 91433 | MIC [1]; 114228 | MIC [2]; 113250 | MIC [2]; 113254 | MIC [2]; 116381 | MIC ([3]; AB027) | MIC ([3]; AB031) | MIC ([3]; LAC-4) | MIC ([4]; 94393 (mcr-1 +)) | MIC ([4]; 94474 (mcr-1 +)) | MIC [4]; 107115 | MIC [5]; 117029 | MIC [3]; 92247 | also measured
CN(C)[C@@H]1C(O)=C(C(N)=O)C(=O)[C@@]2(O)C(O)=C3C(=O)c4c(O)c(NC(=O)CN5CCCC5)cc(F)c4C[C@H]3C[C@@H]12 [ERC, eravacycline] | 8 µg/mL (≈ 14.3 µM) | 8 µg/mL (≈ 14.3 µM) | 8 µg/mL (≈ 14.3 µM) | 16 µg/mL (≈ 28.6 µM) | 8 µg/mL (≈ 14.3 µM) | 1 µg/mL (≈ 1.79 µM) | 0.5 µg/mL (≈ 0.895 µM) | 0.5 µg/mL (≈ 0.895 µM) | 0.5 µg/mL (≈ 0.895 µM) | 0.25 µg/mL (≈ 0.448 µM) | 0.06 µg/mL (≈ 0.107 µM) | 0.5 µg/mL (≈ 0.895 µM) | 1 µg/mL (≈ 1.79 µM) | 0.125 µg/mL (≈ 0.224 µM) | 0.5 µg/mL (≈ 0.895 µM) |  | 
C[C@@H](O)[C@H]1C(=O)N2C(C(=O)O)=C(S[C@@H]3CN[C@H](C(=O)Nc4cccc(C(=O)O)c4)C3)[C@H](C)[C@H]12 [ETP, ertapenem] | > 32 µg/mL | > 32 µg/mL | > 32 µg/mL | > 32 µg/mL |  | ≤ 0.03 µg/mL | ≤ 0.03 µg/mL | 0.12 µg/mL (≈ 0.252 µM) |  |  |  | ≤ 0.03 µg/mL | ≤ 0.03 µg/mL | > 32 µg/mL | ≤ 0.03 µg/mL |  | 
CC[C@H]1OC(=O)[C@H](C)[C@@H](O[C@H]2C[C@@](C)(OC)[C@@H](O)[C@H](C)O2)[C@H](C)[C@@H](O[C@@H]2O[C@H](C)C[C@H](N(C)C)[C@H]2O)[C@](C)(O)C[C@@H](C)C(=O)[C@H](C)[C@@H](O)[C@]1(C)O [Erythromycin] |  |  |  |  |  |  |  |  |  |  |  |  |  |  |  |  | MICcombo [6]: 0.25 µg/mL; MIC [6]: 64 µg/mL; MIC [7]: 256 µg/mL (≈ 349 µM); MICcombo [8]: 1 µg/mL; MIC [8]: 16 µg/mL
CO[C@@]1(NC(=O)Cc2cccs2)C(=O)N2C(C(=O)O)=C(COC(N)=O)CS[C@@H]21 [FOX, cefoxitin] | > 32 µg/mL | > 32 µg/mL | > 32 µg/mL | > 32 µg/mL |  | 1 µg/mL (≈ 2.34 µM) | 1 µg/mL (≈ 2.34 µM) | 16 µg/mL (≈ 37.4 µM) |  |  |  | 4 µg/mL (≈ 9.36 µM) | 16 µg/mL (≈ 37.4 µM) | > 32 µg/mL | > 32 µg/mL | 32 µg/mL (≈ 74.9 µM) | MIC [5]; 118564: > 32 µg/mL; MIC [5]; 121187: > 32 µg/mL
C[C@@H]1O[C@@H]1P(=O)(O)O [Fosfomycin] |  |  |  |  |  |  |  |  |  |  |  |  |  |  |  |  | MICcombo [6]: 8 µg/mL; MIC [6]: 16 µg/mL; MICcombo ([7]; antibiotic with dUSTBβP 3 at 8 μg/mL): 2 µg/mL; MIC [7]: 32 µg/mL (≈ 232 µM); MICcombo [8]: 256 µg/mL; MIC [8]: > 256 µg/mL
C[C@@H](O)[C@H]1C(=O)N2C(C(=O)O)=C(SCCN=CN)C[C@H]12 [IMI, imipenem] | 32 µg/mL (≈ 107 µM) | 32 µg/mL (≈ 107 µM) | 32 µg/mL (≈ 107 µM) | 32 µg/mL (≈ 107 µM) |  | 0.25 µg/mL (≈ 0.835 µM) | 0.12 µg/mL (≈ 0.401 µM) | 0.5 µg/mL (≈ 1.67 µM) | 32 µg/mL (≈ 107 µM) | 0.25 µg/mL (≈ 0.835 µM) | < 1 µg/mL | 0.25 µg/mL (≈ 0.835 µM) | 0.25 µg/mL (≈ 0.835 µM) | 8 µg/mL (≈ 26.7 µM) | 0.25 µg/mL (≈ 0.835 µM) |  | 
C[C@@H](O)[C@H]1C(=O)N2C(C(=O)O)=C(S[C@@H]3CN[C@H](C(=O)N(C)C)C3)[C@H](C)[C@H]12 [MER, meropenem] | 1020 µg/mL (≈ 2670 µM) | 32 µg/mL (≈ 83.4 µM) | 64 µg/mL (≈ 167 µM) | 16 µg/mL (≈ 41.7 µM) | 8 µg/mL (≈ 20.9 µM) | ≤ 0.03 µg/mL | ≤ 0.03 µg/mL | ≤ 0.03 µg/mL | 16 µg/mL (≈ 41.7 µM) | 1 µg/mL (≈ 2.61 µM) | < 1 µg/mL | ≤ 0.03 µg/mL | ≤ 0.03 µg/mL | 32 µg/mL (≈ 83.4 µM) | ≤ 0.03 µg/mL | 4 µg/mL (≈ 10.4 µM) | MIC [5]; 118564: 0.12 µg/mL (≈ 0.313 µM); MIC [5]; 121187: 0.06 µg/mL (≈ 0.156 µM)
CN(C)c1cc(CNCC(C)(C)C)c(O)c2c1C[C@H]1C[C@H]3[C@H](N(C)C)C(O)=C(C(N)=O)C(=O)[C@@]3(O)C(O)=C1C2=O [OMC, omadacycline] | 64 µg/mL (≈ 115 µM) | 64 µg/mL (≈ 115 µM) | 64 µg/mL (≈ 115 µM) | 128 µg/mL (≈ 230 µM) | 16 µg/mL (≈ 28.7 µM) | 2 µg/mL (≈ 3.59 µM) | 4 µg/mL (≈ 7.19 µM) | 4 µg/mL (≈ 7.19 µM) | 1 µg/mL (≈ 1.8 µM) | 2 µg/mL (≈ 3.59 µM) | 1 µg/mL (≈ 1.8 µM) | 4 µg/mL (≈ 7.19 µM) | 16 µg/mL (≈ 28.7 µM) | 4 µg/mL (≈ 7.19 µM) | 4 µg/mL (≈ 7.19 µM) |  | 
CN(C)c1cc(NC(=O)CNC(C)(C)C)c(O)c2c1C[C@H]1C[C@H]3[C@H](N(C)C)C(O)=C(C(N)=O)C(=O)[C@@]3(O)C(O)=C1C2=O [TGC, tigecycline] | 32 µg/mL (≈ 54.6 µM) | 32 µg/mL (≈ 54.6 µM) | 32 µg/mL (≈ 54.6 µM) | 32 µg/mL (≈ 54.6 µM) |  |  |  | 1 µg/mL (≈ 1.71 µM) | 4 µg/mL (≈ 6.83 µM) | 8 µg/mL (≈ 13.7 µM) | < 4 µg/mL | 0.25 µg/mL (≈ 0.427 µM) | 1 µg/mL (≈ 1.71 µM) | 0.25 µg/mL (≈ 0.427 µM) | 0.5 µg/mL (≈ 0.854 µM) | 0.25 µg/mL (≈ 0.427 µM) | 
